Experimental data taken from US9309224B2 (Deciphera Pharmaceuticals, LLC, priority 2013, dated 2016).

Columns and labels:
[1] = molecular target: T1, unphosphorylated c-FMS kinase (uFMS, Seq. ID no. 1) (Homo sapiens, UniProt P07333); assay: uFMS kinase assay (pyruvate kinase/lactate dehydrogenase coupled); format: biochemical; details: ATP 500 μM
T1 construct: purchased Millipore
T1 sequence (P07333 538-972): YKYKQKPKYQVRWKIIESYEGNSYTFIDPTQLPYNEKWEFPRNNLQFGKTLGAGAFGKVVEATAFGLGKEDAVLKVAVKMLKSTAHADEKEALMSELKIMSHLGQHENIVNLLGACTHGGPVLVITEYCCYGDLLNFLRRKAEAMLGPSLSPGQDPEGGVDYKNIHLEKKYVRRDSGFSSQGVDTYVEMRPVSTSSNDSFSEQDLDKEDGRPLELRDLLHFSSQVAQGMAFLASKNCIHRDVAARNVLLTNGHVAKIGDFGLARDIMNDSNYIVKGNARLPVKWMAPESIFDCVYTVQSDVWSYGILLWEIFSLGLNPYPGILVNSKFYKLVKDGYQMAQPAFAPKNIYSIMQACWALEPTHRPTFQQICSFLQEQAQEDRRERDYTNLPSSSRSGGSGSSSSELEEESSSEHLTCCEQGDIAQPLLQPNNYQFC

[2] = molecular target: T2, unphosphorylated c-KIT kinase (uKIT, Seq. ID no. 2) (Homo sapiens, UniProt P10721); assay: uKit kinase assay (pyruvate kinase/lactate dehydrogenase coupled); format: biochemical; details: ATP 2000 μM
T2 construct: uKit with N-terminal GST fusion used for
T2 sequence (P10721 with tags, fused parts or gaps): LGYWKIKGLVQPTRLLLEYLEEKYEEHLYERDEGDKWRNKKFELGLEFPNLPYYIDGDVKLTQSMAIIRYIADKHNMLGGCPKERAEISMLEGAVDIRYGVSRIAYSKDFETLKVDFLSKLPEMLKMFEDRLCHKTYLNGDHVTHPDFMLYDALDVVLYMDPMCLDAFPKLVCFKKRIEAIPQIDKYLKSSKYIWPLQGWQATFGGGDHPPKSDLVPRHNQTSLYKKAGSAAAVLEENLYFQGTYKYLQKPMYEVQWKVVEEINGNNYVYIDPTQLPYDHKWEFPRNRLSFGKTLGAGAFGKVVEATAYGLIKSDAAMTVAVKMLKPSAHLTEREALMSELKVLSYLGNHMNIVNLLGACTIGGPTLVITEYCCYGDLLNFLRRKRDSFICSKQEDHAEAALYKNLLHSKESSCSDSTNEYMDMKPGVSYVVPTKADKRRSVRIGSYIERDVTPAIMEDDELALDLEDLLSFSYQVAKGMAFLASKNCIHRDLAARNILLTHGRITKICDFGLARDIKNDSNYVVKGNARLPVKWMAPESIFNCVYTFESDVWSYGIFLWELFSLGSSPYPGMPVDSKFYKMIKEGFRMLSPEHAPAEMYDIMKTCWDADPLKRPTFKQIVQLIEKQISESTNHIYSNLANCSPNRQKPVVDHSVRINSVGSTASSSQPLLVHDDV
Protocol: In this assay, the oxidation of NADH (thus the decrease at A340 nm) was continuously monitored spectrophometrically. […] The inhibition reaction was started by mixing serial diluted test compound with the above reaction mixture. The absorption at 340 nm was monitored continuously for 4 hours at 30° C. on Synergy 2 plate reader (BioTech).

M-NFS-60 cells = assay: M-NFS-60 cell proliferation assay; format: cell-based; details: 67 h incubation, resazurin
Protocol: M-NFS-60 Cell Proliferation Assay A serial dilution of test compound was dispensed into a 384-well black clear bottom plate (Corning, Corning, N.Y.). Two thousand five hundred cells were added per well in 50 μL complete growth medium. […] IC50 values were calculated from a series of percent inhibition values determined at a range of inhibitor concentrations using software routines as implemented in the GraphPad Prism software package.

osteoclast precursors = assay: Osteoclast tartrate-resistant acid phosphatase assay; format: cell-based; details: Osteoclast; 7-14 days, RANKL and M-CSF
Protocol: Diluted compound was transferred to a 384-well black clear bottom plate. Two-thousand five hundred osteoclast precursors (Lonza, Walkersville, Md.) were added per well in growth media containing Receptor Activator of Nuclear Factor Kappa-beta ligand (RANKL) and M-CSF (R&D Systems, Minneapolis, Minn.). Plates were incubated for 7-14 days at 37 degrees Celsius, 5% CO2, and 95% humidity to allow differentiation of osteoclast precursors. […] Tartrate-resistant acid phosphatase activity in the supernatant samples was determined using an acid phosphatase assay kit (Sigma, St. Louis, Mo.). Absorbance was measured at 550 nm using a plate reader. Data was analyzed using Prism software (Graphpad, San Diego, Calif.) to calculate IC50 values.

[3] = molecular target: T3, unphosphorylated PDGFRβ kinase (uPDGFRβ, Seq. ID No. 3) (Homo sapiens, UniProt P09619); assay: Unphosphorylated PDGFRβ kinase assay (pyruvate kinase/lactate dehydrogenase coupled); format: biochemical; details: ATP 500 μM
T3 construct: purchased DeCode
T3 sequence (P09619 557-1105): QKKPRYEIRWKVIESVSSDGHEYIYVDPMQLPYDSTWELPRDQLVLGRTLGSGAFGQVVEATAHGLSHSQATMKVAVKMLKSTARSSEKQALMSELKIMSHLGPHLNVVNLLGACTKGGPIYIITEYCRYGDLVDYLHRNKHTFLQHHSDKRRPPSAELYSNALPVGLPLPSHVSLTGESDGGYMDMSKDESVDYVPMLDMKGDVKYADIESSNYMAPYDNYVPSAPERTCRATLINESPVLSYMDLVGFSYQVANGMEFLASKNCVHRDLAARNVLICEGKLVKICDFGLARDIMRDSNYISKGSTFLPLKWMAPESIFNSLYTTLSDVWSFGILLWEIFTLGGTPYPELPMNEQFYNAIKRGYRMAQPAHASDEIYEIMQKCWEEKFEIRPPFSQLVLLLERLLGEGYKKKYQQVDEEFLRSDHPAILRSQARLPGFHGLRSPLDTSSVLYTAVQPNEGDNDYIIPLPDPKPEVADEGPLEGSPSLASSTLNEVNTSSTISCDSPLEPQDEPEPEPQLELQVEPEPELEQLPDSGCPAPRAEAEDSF
Source text: Unphosyhorylated PDGFRβ (uPDGFRβkinase (Seq. ID No. 3) assay

SMILES | IC50 [1] | IC50 [2] | IC50 (M-NFS-60 cells) | IC50 (osteoclast precursors) | IC50 [3]
CC(=O)Nc1cc(Oc2ccc(NC(=O)NC(=O)C3CCOC3)nc2)ccn1 (stereo not shown) [Example 22, N-((5-((2-acetamidopyridin-4-yl)oxy)pyridin-2-yl)carbamoyl)tetrahydrofuran-3-carboxamide] | 10 to 100 nM | > 1000 nM | 100 to 1000 nM | 10 to 100 nM | > 1000 nM
CC(=O)Nc1cc(Oc2ccc(NC(=O)NC(=O)C(C)C)nc2)ccn1 [Example 15, N-((5-((2-acetamidopyridin-4-yl)oxy)pyridin-2-yl)carbamoyl)isobutyramide] | 10 to 100 nM | > 1000 nM | 10 to 100 nM | 10 to 100 nM | 100 to 1000 nM
CC(=O)Nc1cc(Oc2ccc(NC(=O)NC(=O)CC3CCCCC3)nc2)ccn1 [Example 4, N-((5-((2-acetamidopyridin-4-yl)oxy)pyridin-2-yl)carbamoyl)-2-cyclohexylacetamide] | < 10 nM | 10 to 100 nM | < 10 nM | < 10 nM | –
CC(=O)Nc1cc(Oc2ccc(NC(=O)NC(=O)C(C)C)nc2C)ccn1 [Example 10, N-((5-((2-acetamidopyridin-4-yl)oxy)-6-methylpyridin-2-yl)carbamoyl)isobutyramide] | 10 to 100 nM | > 1000 nM | 10 to 100 nM | 10 to 100 nM | 100 to 1000 nM
CC(C)(C)C(=O)NC(=O)Nc1ccc(Oc2ccnc(C(=O)NC3CC3)c2)cn1 [Example 74, N-cyclopropyl-4-((6-(3-pivaloylureido)pyridin-3-yl)oxy)picolinamide] | 10 to 100 nM | > 1000 nM | 100 to 1000 nM | 10 to 100 nM | > 1000 nM
COC1(C(=O)NC(=O)Nc2ccc(Oc3ccnc(NC(=O)C4CCN(C)CC4)c3)cn2)CC1 [Example 49, N-(4-((6-(3-(1-methoxycyclopropanecarbonyl)ureido)pyridin-3-yl)oxy)pyridin-2-yl)-1-methylpiperidine-4-carboxamide] | 10 to 100 nM | > 1000 nM | > 1000 nM | 100 to 1000 nM | > 1000 nM
Cn1cnc(C(=O)Nc2cc(Oc3ccc(NC(=O)NC(=O)C(C)(C)C)nc3)ccn2)c1 [Example 59, 1-methyl-N-(4-((6-(3-pivaloylureido)pyridin-3-yl)oxy)pyridin-2-yl)-1H-imidazole-4-carboxamide] | < 10 nM | 100 to 1000 nM | < 10 nM | < 10 nM | 100 to 1000 nM
Cn1cc(C(=O)Nc2cc(Oc3ccc(NC(=O)NC(=O)C(C)(C)C)nc3)ccn2)cn1 [Example 52, 1-methyl-N-(4-((6-(3-pivaloylureido)pyridin-3-yl)oxy)pyridin-2-yl)-1H-pyrazole-4-carboxamide] | < 10 nM | 10 to 100 nM | < 10 nM | < 10 nM | 100 to 1000 nM
CC(C)(C)C(=O)NC(=O)Nc1ccc(Oc2ccnc(NC(=O)CC#N)c2)cn1 [Example 56, N-((5-((2-(2-cyanoacetamido)pyridin-4-yl)oxy)pyridin-2-yl)carbamoyl)pivalamide] | 10 to 100 nM | > 1000 nM | > 1000 nM | 100 to 1000 nM | 100 to 1000 nM
CC(=O)Nc1cc(Oc2ccc(NC(=O)NC(=O)C3CC4CCC3O4)nc2C)ccn1 (stereo not shown) [Example 29, N-((5-((2-acetamidopyridin-4-yl)oxy)-6-methylpyridin-2-yl)carbamoyl)-7-oxabicyclo[2.2.1]heptane-2-carboxamide] | 10 to 100 nM | > 1000 nM | 10 to 100 nM | 10 to 100 nM | –
COC(C)(C)C(=O)NC(=O)Nc1ccc(Oc2ccnc(NC(=O)C3CCN(C)CC3)c2)cn1 [Example 40, N-(4-((6-(3-(2-methoxy-2-methylpropanoyl)ureido)pyridin-3-yl)oxy)pyridin-2-yl)-1-methylpiperidine-4-carboxamide] | 10 to 100 nM | > 1000 nM | 100 to 1000 nM | 10 to 100 nM | –
CC(=O)Nc1cc(Oc2ccc(NC(=O)NC(=O)C3CCOC3)nc2C)ccn1 (stereo not shown) [Example 14, N-((5-((2-acetamidopyridin-4-yl)oxy)-6-methylpyridin-2-yl)carbamoyl)tetrahydrofuran-3-carboxamide] | 100 to 1000 nM | > 1000 nM | 10 to 100 nM | 100 to 1000 nM | > 1000 nM
CN(C)C(=O)Nc1cc(Oc2ccc(NC(=O)NC(=O)C3(C)CC3)nc2)ccn1 [Example 50, N-((5-((2-(3,3-dimethylureido)pyridin-4-yl)oxy)pyridin-2-yl)carbamoyl)-1-methylcyclopropanecarboxamide] | < 10 nM | 10 to 100 nM | < 10 nM | < 10 nM | 10 to 100 nM
CC(C)(C)C(=O)NC(=O)Nc1ccc(Oc2ccnc(NC(=O)C3CC3)c2)cn1 [Example 18, N-(4-((6-(3-pivaloylureido)pyridin-3-yl)oxy)pyridin-2-yl)cyclopropanecarboxamide] | < 10 nM | 100 to 1000 nM | < 10 nM | < 10 nM | 100 to 1000 nM
O=C(NC(=O)C1CCOCC1)Nc1ccc(Oc2ccnc(NC(=O)C3CC3)c2)cn1 [Example 35, N-((5-((2-(cyclopropanecarboxamido)pyridin-4-yl)oxy)pyridin-2-yl)carbamoyl)tetrahydro-2H-pyran-4-carboxamide] | < 10 nM | 100 to 1000 nM | < 10 nM | < 10 nM | < 10 nM
CC(=O)Nc1cc(Oc2ccc(NC(=O)NC(=O)C3(C)CCC3)nc2)ccn1 [Example 44, N-((5-((2-acetamidopyridin-4-yl)oxy)pyridin-2-yl)carbamoyl)-1-methylcyclobutanecarboxamide] | < 10 nM | 100 to 1000 nM | < 10 nM | < 10 nM | 100 to 1000 nM
CC(=O)Nc1cc(Oc2ccc(NC(=O)NC(=O)C3CC4CCC3O4)nc2)ccn1 (stereo not shown) [Example 28, N-((5-((2-acetamidopyridin-4-yl)oxy)pyridin-2-yl)carbamoyl)-7-oxabicyclo[2.2.1]heptane-2-carboxamide] | < 10 nM | 100 to 1000 nM | 10 to 100 nM | < 10 nM | –
CC(=O)Nc1cc(Oc2ccc(NC(=O)NC(=O)C3CCCCC3)nc2)ccn1 [Example 1, N-((5-((2-acetamidopyridin-4-yl)oxy)pyridin-2-yl)carbamoyl)cyclohexanecarboxamide] | 10 to 100 nM | 100 to 1000 nM | < 10 nM | < 10 nM | –
CCC(=O)NC(=O)Nc1ccc(Oc2ccnc(NC(C)=O)c2)cn1 [Example 16, N-((5-((2-acetamidopyridin-4-yl)oxy)pyridin-2-yl)carbamoyl)propionamide] | 100 to 1000 nM | > 1000 nM | 100 to 1000 nM | 100 to 1000 nM | > 1000 nM
CN(C)C1CC(C(=O)Nc2cc(Oc3ccc(NC(=O)NC(=O)C(C)(C)C)nc3)ccn2)C1 (stereo not shown) [Example 60, (1s,3s)-3-(dimethylamino)-N-(4-((6-(3-pivaloylureido)pyridin-3-yl)oxy)pyridin-2-yl)cyclobutanecarboxamide] | 10 to 100 nM | > 1000 nM | 100 to 1000 nM | 10 to 100 nM | 100 to 1000 nM
CN1CCC(NC(=O)c2cc(Oc3ccc(NC(=O)NC(=O)C(C)(C)C)nc3)ccn2)CC1 [Example 75, N-(1-methylpiperidin-4-yl)-4-((6-(3-pivaloylureido)pyridin-3-yl)oxy)picolinamide] | 100 to 1000 nM | > 1000 nM | > 1000 nM | 10 to 100 nM | > 1000 nM
CC(C)(C)C(=O)NC(=O)Nc1ccc(Oc2ccnc(NC(=O)CN3CCCC3)c2)cn1 [Example 53, N-((5-((2-(2-(pyrrolidin-1-yl)acetamido)pyridin-4-yl)oxy)pyridin-2-yl)carbamoyl)pivalamide] | 10 to 100 nM | > 1000 nM | > 1000 nM | 10 to 100 nM | > 1000 nM
CCC(=O)Nc1cc(Oc2ccc(NC(=O)NC(=O)C3(OC)CC3)nc2)ccn1 [Example 39, 1-methoxy-N-((5-((2-propionamidopyridin-4-yl)oxy)pyridin-2-yl)carbamoyl)cyclopropanecarboxamide] | 10 to 100 nM | > 1000 nM | 10 to 100 nM | 10 to 100 nM | > 1000 nM
CC(C)NC(=O)c1cc(Oc2ccc(NC(=O)NC(=O)C(C)(C)C)nc2)ccn1 [Example 73, N-isopropyl-4-((6-(3-pivaloylureido)pyridin-3-yl)oxy)picolinamide] | 100 to 1000 nM | > 1000 nM | > 1000 nM | 10 to 100 nM | > 1000 nM
